pIC50: −log10 of the molar value. Where a name gives a salt, the structure may show the parent alone.
biological target: human CXCR3-A receptor (Homo sapiens (Human), UniProt P49682); test: 125I-CXCL10 competition radioligand binding assay; conditions: displacement of 125I-CXCL10 from membranes of CHO cells expressing human recombinant CXCR3-A
Summary of the method: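 Membranes from a recombinant cell line expressing human CXCR3-A (10-20 μg protein) were incubated with 125I-CXCL10 and test compound for 60 min at 25° C, then filtered onto PEI-soaked GF/B filters and gamma-counted. IC50 and Hill slope came from four-parameter nonlinear fitting of competition curves.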

Sequence of human CXCR3-A receptor (P49682 whole entry): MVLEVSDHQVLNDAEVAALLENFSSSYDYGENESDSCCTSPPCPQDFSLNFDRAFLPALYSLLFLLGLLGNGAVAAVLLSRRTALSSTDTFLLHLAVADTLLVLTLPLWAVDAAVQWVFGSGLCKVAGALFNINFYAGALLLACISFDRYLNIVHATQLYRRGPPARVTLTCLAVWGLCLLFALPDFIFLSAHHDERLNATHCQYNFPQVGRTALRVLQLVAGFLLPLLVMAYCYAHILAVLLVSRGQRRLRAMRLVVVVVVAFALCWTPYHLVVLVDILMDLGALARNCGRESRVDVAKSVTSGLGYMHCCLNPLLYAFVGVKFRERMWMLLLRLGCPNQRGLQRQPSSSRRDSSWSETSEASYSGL

| pIC50 | SMILES |
| --- | --- |
| 5.78 | COc1cc(CN(C[C@H]2CC[C@@H](C(=O)O)CC2)C2CCc3cc(Cl)ccc32)ccc1OCCN1C(=O)CCC1=O (stereo partly drawn) [Example 13, cis-4-[((5-Chloro-indan-1-yl)-{4-[2-(2,5-dioxo-pyrrolidin-1-yl)-ethoxy]-3-methoxy-benzyl}-amino)-methyl]-cyclohexane-carboxylic acid] |
| 5.33 | O=C1CCC(=O)N1CCOc1ccc(CN(C[C@H]2CC[C@H](C(=O)O)CC2)C2CCc3cc(F)c(Cl)cc32)cc1F (stereo partly drawn) [Example 97, trans-4-[((6-Chloro-5-fluoro-indan-1-yl)-{4-[2-(2,5-dioxo-pyrrolidin-1-yl)-ethoxy]-3-fluoro-benzyl}-amino)-methyl]-cyclohexanecarboxylic acid] |
| 6.39 | COc1cc(CN(C[C@H]2CC[C@H](C(=O)O)CC2)C2CCc3cc(Cl)ccc32)ccc1OCCn1c(=O)ccn(C)c1=O (stereo partly drawn) [Example 48, trans-4-[((5-Chloro-indan-1-yl)-{3-methoxy-4-[2-(3-methyl-2,6-dioxo-3,6-dihydro-2H-pyrimidin-1-yl)-ethoxy]-benzyl}-amino)-methyl]-cyclohexanecarboxylic acid] |
| 7.10 | COc1cc(CN(C[C@H]2CC[C@H](C(=O)O)CC2)[C@H]2CCc3cc(Cl)ccc32)ccc1OCCN1C(=O)c2ccccc2C1=O [Example 156, trans-4-[(((S)-5-Chloro-indan-1-yl)-{4-[2-(1,3-dioxo-1,3-dihydro-isoindol-2-yl)-ethoxy]-3-methoxy-benzyl}-amino)-methyl]-cyclohexanecarboxylic acid; hydrochloride] |
| 7.19 | COc1cc(CN(C[C@H]2CC[C@H](C(=O)O)CC2)C2CCc3cc(Cl)ccc32)ccc1OCCN1C(=O)CCC1=O (stereo partly drawn) [Example 10, trans-4-[((5-Chloro-indan-1-yl)-{4-[2-(2,5-dioxo-pyrrolidin-1-yl)-ethoxy]-3-methoxy-benzyl}-amino)-methyl]-cyclohexane-carboxylic acid] |
| 6.08 | O=C1CCC(=O)N1CCOc1ccc(CN(C[C@H]2CC[C@H](C(=O)O)CC2)[C@H]2CCc3cc(Cl)ccc32)cc1F [Example 72, trans-4-[(((S)-5-Chloro-indan-1-yl)-{4-[2-(2,5-dioxo-pyrrolidin-1-yl)-ethoxy]-3-fluoro-benzyl}-amino)-methyl]-cyclohexanecarboxylic acid] |
| 6.75 | CCc1cc(CN(C[C@H]2CC[C@H](C(=O)O)CC2)[C@H]2CCc3cc(Cl)ccc32)ccc1OCCN1C(=O)CCC1=O [Example 71, trans-4-[(((S)-5-Chloro-indan-1-yl)-{4-[2-(2,5-dioxo-pyrrolidin-1-yl)-ethoxy]-3-ethyl-benzyl}-amino)-methyl]-cyclohexanecarboxylic acid] |
| 6.10 | COc1cc(CN(C[C@H]2CC[C@H](C(=O)O)CC2)[C@@H](C)c2ccc(Cl)cc2)ccc1OCCN1C(=O)CN(C)C1=O [Example 53, trans-4-[([(S)-1-(4-Chloro-phenyl)-ethyl]-{3-methoxy-4-[2-(3-methyl-2,5-dioxo-imidazolidin-1-yl)-ethoxy]-benzyl}-amino)-methyl]-cyclohexanecarboxylic acid] |
| 5.91 | COc1cc(CN(C[C@H]2CC[C@H](C(=O)O)CC2)C2CCc3cc(Cl)ccc32)ccc1CCCN1C(=O)CN(C)C1=O (stereo partly drawn) [Example 50, trans-4-[((5-Chloro-indan-1-yl)-{3-methoxy-4-[3-(3-methyl-2,5-dioxo-imidazolidin-1-yl)-propyl]-benzyl}-amino)-methyl]-cyclohexanecarboxylic acid] |
| 6.67 | COc1cc(CN(C[C@H]2CC[C@H](C(=O)O)CC2)[C@@H](C)c2ccc(Cl)cc2)ccc1CCCN1C(=O)CCC1=O [Example 56, trans-4-[([(S)-1-(4-Chloro-phenyl)-ethyl]-{4-[3-(2,5-dioxo-pyrrolidin-1-yl)-propyl]-3-methoxy-benzyl}-amino)-methyl]-cyclohexanecarboxylic acid] |

The next lines start with the compound.

| SMILES | pIC50 |
| --- | --- |
| Cc1cc(CN(C[C@H]2CC[C@H](C(=O)O)CC2)C(C)c2ccc3c(c2)CCO3)ccc1OCCN1C(=O)CCC1=O (stereo partly drawn) [Example 17, trans-4-[([1-(2,3-Dihydro-benzofuran-5-yl)-ethyl]-{4-[2-(2,5-dioxo-pyrrolidin-1-yl)-ethoxy]-3-methyl-benzyl}-amino)-methyl]-cyclohexanecarboxylic acid] | 7.36 |
| Cc1cc(CN([C@H]2C[C@@H](C(=O)O)C2)[C@H](C)c2ccc(Cl)cc2)ccc1OCCn1c(=O)ccn(C)c1=O [Example 136, cis-3-([(R)-1-(4-Chloro-phenyl)-ethyl]-{3-methyl-4-[2-(3-methyl-2,6-dioxo-3,6-dihydro-2H-pyrimidin-1-yl)-ethoxy]-benzyl}-amino)-cyclobutanecarboxylic acid] | 6.46 |
| CCc1cc(CN(C(C)c2ccc(Cl)c(F)c2)[C@H]2C[C@@H](C(=O)O)C2)ccc1OCCN1C(=O)CCC1=O (stereo partly drawn) [Example 140, cis-3-([1-(4-Chloro-3-fluoro-phenyl)-ethyl]-{4-[2-(2,5-dioxo-pyrrolidin-1-yl)-ethoxy]-3-ethyl-benzyl}-amino)-cyclobutanecarboxylic acid] | 6.59 |
| CCc1cc(CN(C[C@H]2CC[C@H](C(=O)O)CC2)C(C)c2ccc3c(c2)CCO3)ccc1OCCN1C(=O)CCC1=O (stereo partly drawn) [Example 76, trans-4-[([1-(2,3-Dihydro-benzofuran-5-yl)-ethyl]-{4-[2-(2,5-dioxo-pyrrolidin-1-yl)-ethoxy]-3-ethyl-benzyl}-amino)-methyl]-cyclohexanecarboxylic acid] | 7.35 |
| COc1cc(CN(CC2CCCC(C(=O)O)C2)C(C)c2ccc3c(c2)CCO3)ccc1OCCN1C(=O)CCC1=O (stereo not drawn) [Example 41, 3-[([1-(2,3-Dihydro-benzofuran-5-yl)-ethyl]-{4-[2-(2,5-dioxo-pyrrolidin-1-yl)-ethoxy]-3-methoxy-benzyl}-amino)-methyl]-cyclohexanecarboxylic acid] | 6.88 |
| COc1cc(CN(C[C@H]2CC[C@H](C(=O)O)CC2)[C@@H](C)c2ccc(Cl)cc2)ccc1OCCN1C(=O)COC1=O [Example 36, trans-4-[([(S)-1-(4-Chloro-phenyl)-ethyl]-{4-[2-(2,4-dioxo-oxazolidin-3-yl)-ethoxy]-3-methoxy-benzyl}-amino)-methyl]-cyclohexanecarboxylic acid] | 7.55 |
| CCC(c1ccc(Cl)cc1)N(Cc1ccc(OCCN2C(=O)CN(C)C2=O)c(OC)c1)C[C@H]1[C@H](C(=O)O)C1(C)C (stereo partly drawn) [Example 116, (1S,3S)-3-[([1-(4-Chloro-phenyl)-propyl]-{3-methoxy-4-[2-(3-methyl-2,5-dioxo-imidazolidin-1-yl)-ethoxy]-benzyl}-amino)-methyl]-2,2-dimethyl-cyclopropanecarboxylic acid] | 6.80 |
| COc1cc(CN(C(C)c2ccc3c(c2)CCO3)[C@H]2C[C@H](C(=O)O)C2)ccc1OCCn1c(=O)ccn(C)c1=O (stereo partly drawn) [Example 120, trans-3-([1-(2,3-Dihydro-benzofuran-5-yl)-ethyl]-{3-methoxy-4-[2-(3-methyl-2,6-dioxo-3,6-dihydro-2H-pyrimidin-1-yl)-ethoxy]-benzyl}-amino)-cyclobutanecarboxylic acid] | 5.54 |
| COc1cc(CN(C[C@@H]2C[C@@H]2C(=O)O)C(C)c2ccc3c(c2)CCO3)ccc1OCCN1C(=O)CCC1=O (stereo partly drawn) [Example 114, (1S,2R)-2-[([1-(2,3-Dihydro-benzofuran-5-yl)-ethyl]-{4-[2-(2,5-dioxo-pyrrolidin-1-yl)-ethoxy]-3-methoxy-benzyl}-amino)-methyl]-cyclopropanecarboxylic acid] | 6.74 |
| COc1cc(CN(C[C@H]2CC[C@@H](C(=O)O)C2)[C@H](C)c2ccc3c(c2)CCO3)ccc1OCCN1C(=O)CCC1=O [Example 103, (1R,3S)-3-[([(R)-1-(2,3-Dihydro-benzofuran-5-yl)-ethyl]-{4-[2-(2,5-dioxo-pyrrolidin-1-yl)-ethoxy]-3-methoxy-benzyl}-amino)-methyl]-cyclopentanecarboxylic acid] | 6.59 |
| COc1cc(CN(C[C@H]2CC[C@H](C(=O)O)CC2)C(C)c2ccc3c(c2)CCO3)ccc1OCCN1C(=O)COC1=O (stereo partly drawn) [Example 19, trans-4-[([1-(2,3-Dihydro-benzofuran-5-yl)-ethyl]-{4-[2-(2,4-dioxo-oxazolidin-3-yl)-ethoxy]-3-methoxy-benzyl}-amino)-methyl]-cyclohexanecarboxylic acid] | 7.26 |

Source: patent publication US9073853B2, “Cycloalkane carboxylic acid derivatives as CXCR3 receptor antagonists” (Sanofi, priority 2011, dated 2015)
